Assay results reported in the NIST ThermoML archive (doi:10.1007/s10765-006-0047-0).

Key:
[1] = 298.15 K, 101.33 kPa, Liquid; for mass density: Pycnometric method; for speed of sound: Sing-around technique in a fixed-path interferometer
[2] = xn = mol fraction of the nth substance listed; details: 298.15 K, 101 kPa, Liquid, Sing-around technique in a fixed-path interferometer

COCCOCCO [2-(2-methoxyethoxy)ethanol]
[1]
Details | mass density [kg/m3] | speed of sound [m/s]
– | 1016.43 | 1417.2

CCCN [propan-1-amine]
[1]
Details | mass density [kg/m3] | speed of sound [m/s]
– | 712.25 | 1215.2

COCCOCCOCCO [2-[2-(2-methoxyethoxy)ethoxy]ethanol]
[1]
Details | mass density [kg/m3] | speed of sound [m/s]
– | 1043.06 | 1459

CCCCOCCOCCO [3,6-dioxa-1-decanol] + CCCN
[2]
Details | speed of sound [m/s]
x1 = 0.0052 | 1215.5
x1 = 0.0133 | 1218.1
x1 = 0.0295 | 1223
x1 = 0.0505 | 1228.7
x1 = 0.0779 | 1236.9
x1 = 0.1487 | 1256.7
x1 = 0.2053 | 1272.3
x1 = 0.2645 | 1286.7
x1 = 0.318 | 1298.6
x1 = 0.378 | 1310.2
x1 = 0.4304 | 1319.4
x1 = 0.4767 | 1326
x1 = 0.5226 | 1331.6
x1 = 0.5715 | 1336.8
x1 = 0.6306 | 1342.1
x1 = 0.6855 | 1346.2
x1 = 0.7347 | 1349.4
x1 = 0.7728 | 1351.3
x1 = 0.8152 | 1353.3
x1 = 0.87 | 1355.9
x1 = 0.9073 | 1356.7
x1 = 0.9289 | 1357.7
x1 = 0.9504 | 1358.3
x1 = 0.9663 | 1358.5
x1 = 0.9813 | 1358.7

CCCCOCCOCCOCCCC [5,8,11-trioxapentadecane]
[1]
Details | mass density [kg/m3] | speed of sound [m/s]
– | 878.55 | 1270.1

CCOCCOCCOCC [diethylene glycol diethyl ether] + CCCN
[2]
Details | speed of sound [m/s]
x1 = 0.0035 | 1214.7
x1 = 0.0108 | 1214.5
x1 = 0.025 | 1214
x1 = 0.0591 | 1214.1
x1 = 0.0865 | 1214.7
x1 = 0.1134 | 1215.2
x1 = 0.1662 | 1217.3
x1 = 0.2091 | 1218.8
x1 = 0.2738 | 1221.4
x1 = 0.3214 | 1223.8
x1 = 0.3658 | 1225.7
x1 = 0.3939 | 1227
x1 = 0.4846 | 1230.5
x1 = 0.5313 | 1232.3
x1 = 0.5713 | 1233.8
x1 = 0.6319 | 1235.6
x1 = 0.6754 | 1236.7
x1 = 0.7192 | 1238.1
x1 = 0.7754 | 1239.4
x1 = 0.8066 | 1240.1
x1 = 0.8729 | 1241.7
x1 = 0.9037 | 1242.1
x1 = 0.9238 | 1242.2
x1 = 0.9448 | 1242.3
x1 = 0.9638 | 1242.4
x1 = 0.9835 | 1242.5
x1 = 0.9916 | 1242.2

CCCCOCCOCCO [3,6-dioxa-1-decanol]
[1]
Details | mass density [kg/m3] | speed of sound [m/s]
– | 947.98 | 1358.9

COCCOCCOCCO [2-[2-(2-methoxyethoxy)ethoxy]ethanol] + CCCN
[2]
Details | speed of sound [m/s]
x1 = 0.0039 | 1216.1
x1 = 0.0134 | 1219.9
x1 = 0.0327 | 1226.9
x1 = 0.0519 | 1234.2
x1 = 0.0799 | 1245.4
x1 = 0.108 | 1258
x1 = 0.1484 | 1274.9
x1 = 0.2102 | 1299.7
x1 = 0.2743 | 1324.5
x1 = 0.341 | 1347.6
x1 = 0.3879 | 1361.8
x1 = 0.4351 | 1375
x1 = 0.5433 | 1398.7
x1 = 0.5904 | 1407.5
x1 = 0.6475 | 1416
x1 = 0.6873 | 1422.1
x1 = 0.7353 | 1429.5
x1 = 0.7806 | 1434.9
x1 = 0.8226 | 1441.1
x1 = 0.8873 | 1448.3
x1 = 0.9295 | 1452.6
x1 = 0.9565 | 1456.2
x1 = 0.9751 | 1457
x1 = 0.9898 | 1458.5
x1 = 0.9973 | 1458.7

CCOCCOCCO [3,6-dioxa-1-octanol] + CCCN
[2]
Details | speed of sound [m/s]
x1 = 0.0021 | 1215.3
x1 = 0.0048 | 1215.4
x1 = 0.0177 | 1218.7
x1 = 0.0374 | 1223.3
x1 = 0.0647 | 1230.5
x1 = 0.0909 | 1236.8
x1 = 0.1313 | 1247.7
x1 = 0.1669 | 1257.2
x1 = 0.2491 | 1278.4
x1 = 0.3135 | 1293.9
x1 = 0.3898 | 1310.7
x1 = 0.4519 | 1322.7
x1 = 0.4879 | 1329.1
x1 = 0.5348 | 1337.5
x1 = 0.5888 | 1344.5
x1 = 0.6314 | 1349.7
x1 = 0.6808 | 1355.5
x1 = 0.7314 | 1359.9
x1 = 0.7778 | 1363.7
x1 = 0.8381 | 1367.3
x1 = 0.876 | 1370
x1 = 0.9121 | 1371.4
x1 = 0.9343 | 1373.1
x1 = 0.9624 | 1374.6
x1 = 0.9887 | 1375.9
x1 = 0.9971 | 1376.8

CCCN [propan-1-amine] + COCCO
[2]
Details | speed of sound [m/s]
x2 = 0.0036 | 1215.3
x2 = 0.0101 | 1216.4
x2 = 0.0272 | 1218.3
x2 = 0.047 | 1221.7
x2 = 0.0831 | 1227.4
x2 = 0.1175 | 1232.5
x2 = 0.1521 | 1238.8
x2 = 0.1977 | 1247
x2 = 0.2378 | 1254
x2 = 0.2982 | 1265.6
x2 = 0.3629 | 1276.6
x2 = 0.4188 | 1285.8
x2 = 0.474 | 1294.1
x2 = 0.5181 | 1299.6
x2 = 0.5862 | 1307.8
x2 = 0.6459 | 1314.6
x2 = 0.7102 | 1321.5
x2 = 0.799 | 1329.7
x2 = 0.8253 | 1331.6
x2 = 0.8642 | 1334.2
x2 = 0.8918 | 1336.2
x2 = 0.908 | 1338
x2 = 0.9316 | 1339.5
x2 = 0.9621 | 1341.5
x2 = 0.9824 | 1342.9
x2 = 0.9932 | 1343.4
x2 = 0.9989 | 1343.5

CCOCCOCCOCC [diethylene glycol diethyl ether]
[1]
Details | mass density [kg/m3] | speed of sound [m/s]
– | 902.76 | 1241.9

CCCCOCCOCCOCCCC [5,8,11-trioxapentadecane] + CCCN
[2]
Details | speed of sound [m/s]
x1 = 0.0033 | 1215.3
x1 = 0.0114 | 1215.5
x1 = 0.033 | 1217.3
x1 = 0.0476 | 1218.4
x1 = 0.0724 | 1221
x1 = 0.0955 | 1222.8
x1 = 0.139 | 1227.3
x1 = 0.1781 | 1231.7
x1 = 0.2413 | 1237.2
x1 = 0.3004 | 1242
x1 = 0.3569 | 1245.8
x1 = 0.4169 | 1249.5
x1 = 0.4689 | 1251.9
x1 = 0.5355 | 1255.2
x1 = 0.5925 | 1258.2
x1 = 0.6493 | 1260.8
x1 = 0.6979 | 1262.9
x1 = 0.7548 | 1264.7
x1 = 0.8153 | 1266.6
x1 = 0.8686 | 1268.2
x1 = 0.9 | 1269
x1 = 0.9241 | 1269.5
x1 = 0.9526 | 1269.9
x1 = 0.977 | 1270.1
x1 = 0.991 | 1270.3

COCCO [2-methoxyethan-1-ol]
[1]
Details | mass density [kg/m3] | speed of sound [m/s]
– | 960.32 | 1343.3

CCOCCOCCO [3,6-dioxa-1-octanol]
[1]
Details | mass density [kg/m3] | speed of sound [m/s]
– | 983.84 | 1377.3

COCCOCCO [2-(2-methoxyethoxy)ethanol] + CCCN
[2]
Details | speed of sound [m/s]
x1 = 0.0055 | 1215.3
x1 = 0.0112 | 1217
x1 = 0.024 | 1220.2
x1 = 0.0454 | 1225.5
x1 = 0.0749 | 1233.3
x1 = 0.0948 | 1238.6
x1 = 0.1292 | 1249.1
x1 = 0.1834 | 1264.6
x1 = 0.2523 | 1284.5
x1 = 0.309 | 1301.5
x1 = 0.3831 | 1320.8
x1 = 0.4484 | 1337
x1 = 0.5041 | 1349.4
x1 = 0.5603 | 1360.6
x1 = 0.6353 | 1373.2
x1 = 0.6792 | 1380
x1 = 0.7209 | 1385.9
x1 = 0.7775 | 1392.7
x1 = 0.8121 | 1397.5
x1 = 0.8725 | 1404.9
x1 = 0.912 | 1408.8
x1 = 0.9332 | 1411.2
x1 = 0.9535 | 1413.1
x1 = 0.9852 | 1416.5
x1 = 0.9983 | 1417.1
